According to patent publication US10028948B2, “Chromone derivative as a dopamine D3 receptor antagonist for its use for the treatment of autism spectrum disorder” (PIERRE FABRE MEDICAMENT, priority 2013, dated 2018):
Where a name gives a salt, the structure may show the parent alone.

Tests used:
[1] = target: T1, human recombinant dopamine D3 receptor (Homo sapiens, UniProt P35462); assay: Inhibition of [3H]spiperone binding, human recombinant dopamine D3 receptor; settings: cells expressing human recombinant D3 receptor, read-out: inhibition constant (Ki), dopamine D3 receptor
T1 construct: expressed in transfected cells
Procedure: (§1) The N-(3-{4-[4-(8-oxo-8H-[1,3]dioxolo[4,5-g]chromen-7-yl)-butyl]-piperazin-1-yl}-phenyl)-methanesulfonamide hydrochloride was evaluated in vitro as a dopamine D3 receptor ligand and modulator of the activity of that receptor in accordance with the invention in cells expressing human recombinant dopamine D3 receptor or human recombinant dopamine D2 receptor. The inhibition constant (Ki) was measured by inhibition of the binding of [^3H] spiperone as described by Cussac et al., in Naunyn-Schmiedeberg's Arch. Pharmacol. 2000, vol 361, p 569-572.

[2] = target: T2, human recombinant dopamine D2 receptor (Homo sapiens, UniProt P14416); assay: Inhibition of [3H]spiperone binding, human recombinant dopamine D2 receptor; settings: human recombinant D2 vs D3 receptor
T2 construct: expressed in transfected cells
Procedure: as §1

[3] = tested on: social interaction behavior of offspring of sodium valproate- or saline-treated female rats; assay: Social interaction in the valproic acid rat model of autism; assay type: in vivo, Sprague-Dawley rats; settings: acute administration, scored 10 min, n=10
Procedure: The N-(3-{4-[4-(8-oxo-8H-[1,3]dioxolo[4,5-g]chromen-7-yl)-butyl]-piperazin-1-yl}-phenyl)-methanesulfonamide hydrochloride was tested on social interaction of offspring of female rats which had been administered valproic acid as a sodium salt. The experimental settings of the valproic acid rat model of autism were adapted from published data (Dendrinos et al., Front. Integr. Neurosci. 2011, vol 5, art 68; Markram et al., Neuropsychopharm. 2007, vol 33, p 901-912; Schneider et al., Neuropsychopharm. 2005, vol 30, p 80-89).
Pregnant (embryonic day 8 max) female Sprague-Dawley rats [OFA (SD) Charles River Lyon, France] were quarantined for 4 days. Animals were group housed (2 per cage) in a full bottom cage (ML-H Cage, 370×235×180 mm, L×W×H; floor surface 870 cm^2) in an environmentally controlled room (temperature 21±1° C.; relative humidity 55±5%) under a 12-h light/dark cycle (lights on at 07:00 AM) with food (A04, Safe, Augy, France) and filtered water (0.2 μm pore diameter) freely available. Until weaning of offspring, animals were changed only once per week in order to disturb them as little as possible. Environmental enrichment (nesting material) was provided.
On embryonic days 12 and 13 (E12-E13), females were weighed and received three intraperitoneal injections of 2.4 ml/kg of sodium valproate (NaVPA, 200 mg/kg). Sodium valproate was dissolved in 0.9% saline for a concentration of 83.3 mg/ml, pH 7.3. Control dams received three intraperitoneal injections of saline (2.4 ml/kg). After the third injection, females were individually housed in ML-H type cages and allowed to raise their litters. Offspring were weaned between 21 to 23 days postnatally.
One sodium valproate- or saline-exposed rat and an unfamiliar naïve rat were placed in opposite corners of an arena (black arena 70 cm×70 cm×30 cm, L×I×H). Individual behavior related to social interaction such as following grooming, sniffing or biting the other rat as well as climbing over the other rat, initiated by the tested rat toward the unfamiliar rat were scored for a period of 10 min. […]

T2 sequence (P14416 whole entry): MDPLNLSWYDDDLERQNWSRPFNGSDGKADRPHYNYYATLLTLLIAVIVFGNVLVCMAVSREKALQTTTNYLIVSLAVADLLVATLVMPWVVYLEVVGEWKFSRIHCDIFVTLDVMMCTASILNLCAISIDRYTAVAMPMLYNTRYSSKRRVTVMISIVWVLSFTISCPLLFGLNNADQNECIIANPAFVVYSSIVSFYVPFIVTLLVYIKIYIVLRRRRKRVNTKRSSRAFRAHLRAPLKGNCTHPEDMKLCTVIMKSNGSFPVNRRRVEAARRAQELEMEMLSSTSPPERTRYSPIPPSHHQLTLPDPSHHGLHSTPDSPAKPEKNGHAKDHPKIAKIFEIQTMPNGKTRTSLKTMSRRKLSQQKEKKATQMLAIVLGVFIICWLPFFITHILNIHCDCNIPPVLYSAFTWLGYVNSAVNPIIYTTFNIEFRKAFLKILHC
T1 sequence (P35462 whole entry): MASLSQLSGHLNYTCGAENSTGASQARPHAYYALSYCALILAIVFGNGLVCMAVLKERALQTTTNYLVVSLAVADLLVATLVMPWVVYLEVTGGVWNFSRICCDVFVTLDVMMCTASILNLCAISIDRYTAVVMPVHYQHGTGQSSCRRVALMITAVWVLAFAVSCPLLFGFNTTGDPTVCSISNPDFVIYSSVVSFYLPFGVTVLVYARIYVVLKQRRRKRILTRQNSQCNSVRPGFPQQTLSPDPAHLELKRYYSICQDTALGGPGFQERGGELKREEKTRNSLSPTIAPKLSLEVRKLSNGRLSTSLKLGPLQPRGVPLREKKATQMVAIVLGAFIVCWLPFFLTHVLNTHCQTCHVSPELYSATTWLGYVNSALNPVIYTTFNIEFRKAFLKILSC

CS(=O)(=O)Nc1cccc(N2CCN(CCCCc3coc4cc5c(cc4c3=O)OCO5)CC2)c1 [compound according to the invention, N-(3-{4-[4-(8-oxo-8H-[1,3]dioxolo[4,5-g]chromen-7-yl)-butyl]-piperazin-1-yl}-phenyl)-methanesulfonamide hydrochloride]
Ki [1]: 0.17 nM | affinity for dopamine D2 receptor relative to D3 (times weaker) [2]: 71 times | effect on social interaction deficits induced by prenatal exposure to sodium valproate ([3]; 0.63 mg/kg): significantly reduced | effect on social interaction deficits induced by prenatal exposure to sodium valproate ([3]; 2.5 mg/kg): completely reversed | effect on social interaction behavior ([3]; offspring of saline-treated mothers): no significant effects
